Data on 20 molecules can be found in PubChem BioAssay AID248 (DTP/NCI, 2004).

Values joined by “and” are separate entries in the source; they are usually repeats but may differ in a detail not shown here. Equal values may be shown once. Inconclusive results and toxic doses are left out.

The assay concerns L1210 leukemia ip in BDF1 mice, survival T/C. Briefly: NCI In Vivo Anticancer Drug Screen. Data for tumor model L1210 Leukemia (intraperitoneal) in B6D2F1 (BDF1) mice. The note with it: endpoint: mean survival time, higher = longer survival. Put shortly: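 Mice bearing the transplanted tumor received compound or vehicle. Survival of the treated group was divided by that of the vehicle-treated control group to give the ratio.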

The mark [1] stands for this setting: dose: 100.0 mg/kg/injection, schedule: Q04DX003 (ip), vehicle: saline with Tween-80.
The mark [2] stands for this setting: dose: 200.0 mg/kg/injection, schedule: Q04DX003 (ip), vehicle: saline with Tween-80.
[3] abbreviates: dose: 400.0 mg/kg/injection, schedule: Q01DX009 (ip), vehicle: saline with Tween-80.
The mark [4] stands for this setting: dose: 400.0 mg/kg/injection, schedule: Q04DX003 (ip), vehicle: saline with Tween-80.
Where [5] appears, read: dose: 100.0 mg/kg/injection, schedule: Q01DX001 (ip), vehicle: saline.
Where [6] appears, read: dose: 200.0 mg/kg/injection, schedule: Q01DX001 (ip), vehicle: saline.
[7] abbreviates: dose: 400.0 mg/kg/injection, schedule: Q01DX001 (ip), vehicle: saline.
Setting [8] is: dose: 50.0 mg/kg/injection, schedule: Q01DX009 (ip), vehicle: saline with Tween-80.
[9] abbreviates: dose: 100.0 mg/kg/injection, schedule: Q01DX009 (ip), vehicle: saline with Tween-80.
Setting [10] is: dose: 200.0 mg/kg/injection, schedule: Q01DX009 (ip), vehicle: saline with Tween-80.
Where [11] appears, read: dose: 25.0 mg/kg/injection, schedule: Q01DX009 (ip), vehicle: saline.
[12] abbreviates: dose: 50.0 mg/kg/injection, schedule: Q01DX009 (ip), vehicle: saline.
The mark [13] stands for this setting: dose: 100.0 mg/kg/injection, schedule: Q04DX003 (ip), vehicle: saline.
The mark [14] stands for this setting: dose: 50.0 mg/kg/injection, schedule: Q01DX001 (ip), vehicle: carboxymethylcellulose (CMC).
Where [15] appears, read: dose: 100.0 mg/kg/injection, schedule: Q01DX001 (ip), vehicle: carboxymethylcellulose (CMC).
The mark [16] stands for this setting: dose: 200.0 mg/kg/injection, schedule: Q01DX001 (ip), vehicle: carboxymethylcellulose (CMC).
The mark [17] stands for this setting: dose: 400.0 mg/kg/injection, schedule: Q01DX001 (ip), vehicle: carboxymethylcellulose (CMC).
The mark [18] stands for this setting: dose: 100.0 mg/kg/injection, schedule: Q01DX009 (ip), vehicle: saline.
Where [19] appears, read: dose: 200.0 mg/kg/injection, schedule: Q01DX009 (ip), vehicle: saline.
The mark [20] stands for this setting: dose: 200.0 mg/kg/injection, schedule: Q04DX003 (ip), vehicle: saline.
The mark [21] stands for this setting: dose: 400.0 mg/kg/injection, schedule: Q04DX003 (ip), vehicle: saline.
Setting [22] is: dose: 100.0 mg/kg/injection, schedule: Q01DX009 (ip), vehicle: Klucel (hydroxypropylcellulose) (HPC).
Setting [23] is: dose: 200.0 mg/kg/injection, schedule: Q01DX009 (ip), vehicle: Klucel (hydroxypropylcellulose) (HPC).
[24] abbreviates: dose: 400.0 mg/kg/injection, schedule: Q01DX009 (ip), vehicle: Klucel (hydroxypropylcellulose) (HPC).

As for `CN(C)N=Nc1ccc([N+](=O)[O-])cc1C(N)=O`, the T/C reads like this: (dose: 100.0 mg/kg/injection, schedule: Q01DX001 (ip), vehicle: saline with Tween-80) 117 % of control; (dose: 100.0 mg/kg/injection, schedule: Q01DX007 (ip), vehicle: saline with Tween-80) 124 % of control; under setting [1], 108 % of control; (dose: 180.0 mg/kg/injection, schedule: Q01DX009 (ip), vehicle: saline with Tween-80) 170 % of control; (dose: 200.0 mg/kg/injection, schedule: Q01DX001 (ip), vehicle: saline with Tween-80) 104 % of control; under setting [2], 105 % of control. Further, the T/C (dose: 268.0 mg/kg/injection, schedule: Q01DX009 (ip), vehicle: saline with Tween-80) is 167 % of control; the T/C (dose: 400.0 mg/kg/injection, schedule: Q01DX001 (ip), vehicle: saline with Tween-80) was 108 % of control; the T/C (dose: 400.0 mg/kg/injection, schedule: Q01DX007 (ip), vehicle: saline with Tween-80) is 154 % of control; the T/C under setting [3] was 122 % of control; the T/C under setting [4] was 117 % of control; the T/C (dose: 600.0 mg/kg/injection, schedule: Q01DX009 (ip), vehicle: saline with Tween-80) is 90 % of control.

Turning to `O=C1CSC(c2ccccc2)N1c1ccccc1` (centres undefined), the T/C (dose: 50.0 mg/kg/injection, schedule: Q01DX001 (ip), vehicle: saline) is 106 % of control; the T/C under setting [5] is 118 % of control; the T/C under setting [6] was 108 % of control; the T/C under setting [7] is 100 % of control.

Take `CCOC(=O)/C=C(\C)CO` (tested in a mixture with another compound): the T/C runs as follows: under setting [8], 93 % of control; under setting [9], 93 % of control; under setting [10], 101 % of control.

On to `Cc1ccc(CNc2ccccc2)cc1`, for which the T/C by setting is: (dose: 12.5 mg/kg/injection, schedule: Q04DX003 (ip), vehicle: saline with Tween-80) 95 % of control; (dose: 25.0 mg/kg/injection, schedule: Q04DX003 (ip), vehicle: saline with Tween-80) 95 % of control; (dose: 50.0 mg/kg/injection, schedule: Q04DX003 (ip), vehicle: saline with Tween-80) 97 % of control; (dose: 100.0 mg/kg/injection, schedule: Q01DX009 (ip), vehicle: other) 112 % of control; (dose: 200.0 mg/kg/injection, schedule: Q01DX009 (ip), vehicle: other) 93 % of control; (dose: 400.0 mg/kg/injection, schedule: Q01DX009 (ip), vehicle: other) 93 % of control.

As to `CCOC(=O)C1C=CCCC1` (centres undefined), the T/C runs as follows: under setting [1], 91 % of control; under setting [2], 102 % of control; under setting [4], 94 % of control.

Turning to `Cc1ccc(C(=O)NN2C(N)=NC(N)=NC2(C)C)cc1`, the T/C (dose: 100.0 mg/kg/injection, schedule: Q01DX009 (ip), vehicle: saline sonified) was 111 % of control and the T/C (dose: 200.0 mg/kg/injection, schedule: Q01DX009 (ip), vehicle: saline sonified) is 92 % of control.

On to `CCOC(=O)C1C(=O)CC2c3nc4ccccc4cc3CN2C1=O` (centres undefined), for which the T/C is, setting by setting: (dose: 75.0 mg/kg/injection, schedule: Q01DX001 (ip), vehicle: saline) 97 % of control; (dose: 150.0 mg/kg/injection, schedule: Q01DX001 (ip), vehicle: saline) 114 % of control.

For `CC(=O)N\C(N)=N/N=C\C(C)=N/N=C(\N)NC(C)=O`, the T/C by setting is: (dose: 15.0 mg/kg/injection, schedule: Q01DX Z (ip), vehicle: carboxymethylcellulose (CMC)) 94 % of control; (dose: 30.0 mg/kg/injection, schedule: Q01DX Z (ip), vehicle: carboxymethylcellulose (CMC)) 94 % of control; (dose: 60.0 mg/kg/injection, schedule: Q01DX Z (ip), vehicle: carboxymethylcellulose (CMC)) 97 % of control and 100 % of control; (dose: 120.0 mg/kg/injection, schedule: Q01DX Z (ip), vehicle: carboxymethylcellulose (CMC)) 94 % of control and 102 % of control; (dose: 240.0 mg/kg/injection, schedule: Q01DX Z (ip), vehicle: carboxymethylcellulose (CMC)) 109 % of control.

For `Cc1nc(Cl)c2cnccn12`, the T/C (dose: 12.5 mg/kg/injection, schedule: Q01DX009 (ip), vehicle: saline) was 101 % of control; the T/C under setting [11] was 105 % of control; the T/C under setting [12] is 103 % of control; the T/C under setting [13] was 88 % of control.

In the case of `CC1CN1P(=S)(N1CCCCC1)N1CC1C` (centres undefined), the T/C is, setting by setting: under setting [14], 102 % of control; under setting [15], 91 % of control; under setting [16], 91 % of control; under setting [17], 105 % of control; (dose: 600.0 mg/kg/injection, schedule: Q01DX001 (ip), vehicle: carboxymethylcellulose (CMC)) 103 % of control; (dose: 800.0 mg/kg/injection, schedule: Q01DX001 (ip), vehicle: carboxymethylcellulose (CMC)) 101 % of control.

On to `O=c1cc(Cc2ccccc2)[nH]c(=S)[nH]1`, for which the T/C was 94 % of control under setting [9]; 99 % of control under setting [1]; 93 % of control under setting [10]; 97 % of control under setting [2]; 96 % of control under setting [3]; 100 % of control under setting [4].

Regarding `Nc1nc2ncc(=O)[nH]c2c(=O)[nH]1`, the T/C was 106 % of control under setting [12]; 103 % of control (dose: 50.0 mg/kg/injection, schedule: Q04DX003 (ip), vehicle: saline); 101 % of control under setting [18]; 100 % of control under setting [13]; 87 % of control under setting [19]; 106 % of control under setting [20]. Under setting [21], the T/C is 122 % of control.

For `N#Cc1ccc(OCCCCOc2ccc([N+](=O)[O-])cc2Cl)cc1`, the T/C reads like this: under setting [22], 91 % of control; under setting [23], 95 % of control; under setting [24], 101 % of control.

As to `COc1ccc(Nc2ccc(O)c3c2C(=O)c2ccccc2C3=O)c(Br)c1`, the T/C is 101 % of control under setting [5], 95 % of control under setting [6] and 97 % of control under setting [7].

As to `OC(c1ccccc1)(c1ccccc1)c1ccsc1`, the T/C under setting [8] was 86 % of control and the T/C under setting [9] was 86 % of control.

On to `CN(C)C(=O)Nc1ccc(Cc2ccc(NC(=O)N(C)C)cc2)cc1`, for which the T/C is, setting by setting: under setting [22], 96 % of control; under setting [23], 92 % of control; under setting [24], 96 % of control.

In the case of `COc1ccc(-n2c(=O)c(N=Nc3ccccc3C)c(O)n(-c3ccc(Cl)cc3)c2=S)cc1`, the T/C by setting is: (dose: 50.0 mg/kg/injection, schedule: Q01DX001 (ip), vehicle: Klucel (hydroxypropylcellulose) (HPC)) 100 % of control; (dose: 100.0 mg/kg/injection, schedule: Q01DX001 (ip), vehicle: Klucel (hydroxypropylcellulose) (HPC)) 100 % of control; (dose: 200.0 mg/kg/injection, schedule: Q01DX001 (ip), vehicle: Klucel (hydroxypropylcellulose) (HPC)) 102 % of control.

In the case of `COc1ccccc1/C=N/Nc1nnc(N/N=C/c2ccccc2OC)c2ccccc12`, the T/C was 107 % of control under setting [14], 103 % of control under setting [15], 101 % of control under setting [16] and 103 % of control under setting [17].

Turning to `C(=N\N1CCN(/N=C/c2cccc3ccccc23)CC1)/c1cccc2ccccc12`, the T/C is 93 % of control under setting [15], 90 % of control under setting [16] and 88 % of control under setting [17].

Turning to `O=C1NC(=O)c2ccccc21`, the T/C reads like this: under setting [11], 94 % of control; under setting [12], 99 % of control; under setting [18], 94 % of control and 96 % of control; under setting [13], 95 % of control; under setting [19], 95 % of control and 108 % of control; under setting [20], 98 % of control. The T/C reads like this: (dose: 400.0 mg/kg/injection, schedule: Q01DX009 (ip), vehicle: saline) 95 % of control and 96 % of control; under setting [21], 106 % of control.
